Molecular target: β-galactosidase (E. coli) (Escherichia coli, UniProt P00722)
Test: β-galactosidase-mediated coupling reaction with glycal as potential acceptor
Type: biochemical
Conditions: donor GalβpNO2 Ph (Compound 1); no reaction product
Source text: To increase the yield of disaccharide, activated donors were used illustratively here in the kinetic method of glycosidic bond formation. [Nilsson, I. Trends Biotechnol., 6:256 (1988) and the citations therein]. Disaccharide formation was initially examined using commercially available E. coli β-galactosidase [EC 3.2.1.23] and 4-nitrophenyl β-galactopyranoside (Compound 1) as the galactose donor and glucal (Compound 2) [Hodgson, Biotechnology, 9:609 (1991)] as the acceptor. The reaction was monitored by thin layer chromatograph (TLC). After no additional nitrophenyl galactoside appeared to be consumed (19-26 hours), the reaction was terminated.
In a typical procedure, Compound 1 (77 mg, 0.26 mmol) and […] (54 mg, 0.36 mmol) were combined at 25° C. with E. coli β-galactosidase (75 units) in 4 mL of a 0.07 M PIPES/0.2M NaOAc/0.1M EDTA solution at pH 6.5. The progress of the reaction was monitored by TLC (silica gel, 7:2:1 iPrOH--NH4 OH--H2 O). After 26 hours, the solvent was removed in vacuo and the residue treated with acetic anhydride (2 mL) and pyridine (2 mL). After an additional 12 hours, the mixture was concentrated in vacuo and the residue purified by silica gel chromatography (2:3 ethyl acetate-hexanes) to afford a 2.3:1 mixture of β-1,3 and β-1,6 isomers (72 mg, 50 percent). […] The position of the glycoside linkage was unambiguously determined by ^1 H NMR decoupling studies. […]

Sequence of β-galactosidase (E. coli) (P00722 whole entry): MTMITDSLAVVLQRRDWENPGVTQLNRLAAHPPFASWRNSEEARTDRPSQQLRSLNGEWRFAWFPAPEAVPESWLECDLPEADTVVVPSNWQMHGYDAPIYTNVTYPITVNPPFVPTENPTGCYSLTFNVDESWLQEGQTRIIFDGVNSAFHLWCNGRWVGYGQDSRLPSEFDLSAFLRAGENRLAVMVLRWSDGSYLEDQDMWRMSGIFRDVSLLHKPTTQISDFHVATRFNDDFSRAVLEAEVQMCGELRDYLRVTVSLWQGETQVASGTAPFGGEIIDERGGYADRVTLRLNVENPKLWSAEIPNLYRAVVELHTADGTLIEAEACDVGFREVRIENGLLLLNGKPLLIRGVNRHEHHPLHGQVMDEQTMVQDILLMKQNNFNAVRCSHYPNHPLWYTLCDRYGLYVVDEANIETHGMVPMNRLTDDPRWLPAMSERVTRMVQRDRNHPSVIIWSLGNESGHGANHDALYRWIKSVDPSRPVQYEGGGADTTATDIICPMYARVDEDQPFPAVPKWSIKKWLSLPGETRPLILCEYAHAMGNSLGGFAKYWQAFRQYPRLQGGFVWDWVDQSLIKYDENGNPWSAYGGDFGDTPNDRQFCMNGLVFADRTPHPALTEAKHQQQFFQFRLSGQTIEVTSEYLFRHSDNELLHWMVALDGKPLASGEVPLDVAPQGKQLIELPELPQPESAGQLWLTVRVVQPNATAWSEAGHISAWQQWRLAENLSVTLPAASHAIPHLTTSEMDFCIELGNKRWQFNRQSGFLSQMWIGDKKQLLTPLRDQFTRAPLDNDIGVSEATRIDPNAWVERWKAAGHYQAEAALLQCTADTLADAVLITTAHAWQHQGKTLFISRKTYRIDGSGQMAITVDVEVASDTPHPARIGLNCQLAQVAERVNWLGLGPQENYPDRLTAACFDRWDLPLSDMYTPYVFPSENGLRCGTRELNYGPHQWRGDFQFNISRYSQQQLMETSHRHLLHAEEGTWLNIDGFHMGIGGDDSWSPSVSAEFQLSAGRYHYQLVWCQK

## OC[C@H]1OC=C[C@@H](O)[C@H]1O [Galactal]
  behaviour as potential acceptor in the β-galactosidase coupling reaction (inhibitor): acted as an inhibitor
